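Interpolation was linear, between the two tested concentrations surrounding the appropriate level; five concentrations were tested over 48 hours in 96-well plates. GI50: concentration for 50% inhibition of growth.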 Activity calls are given as the source filed them. Rule as the data show it: active = GI50 up to about 1.1 µM and inactive = higher.
How the values were obtained:
Assay in all cases: NCI anticancer screen, dose series, 48 h
[1] = tested on: 786-0
[2] = tested on: A498
[3] = tested on: A549
[4] = tested on: BT-549
[5] = tested on: HCT-15
[6] = tested on: K562
[7] = tested on: KM12
[8] = tested on: MDA-MB-435
[9] = tested on: Malme-3M
[10] = tested on: OVCAR-8
[11] = tested on: PC-3
[12] = tested on: SK-MEL-28
[13] = tested on: SK-MEL-5
[14] = tested on: SW-620
[15] = tested on: T47D
[16] = tested on: TK-10
[17] = tested on: UACC-62

Row | Structure (SMILES) | GI50 [1] | GI50 [2] | GI50 [3] | GI50 [4] | GI50 [5] [µM] | GI50 [6] | GI50 [7] | GI50 [8] | GI50 [9] | GI50 [10] | GI50 [11] | GI50 [12] | GI50 [13] | GI50 [14] | GI50 [15] | GI50 [16] | GI50 [17]
1 | CC(C)(C)n1nc(C2CC2)cc1NC(=O)Nc1ccc(Cl)cc1 | > 100 µM (inactive) | > 100 µM (inactive) | > 100 µM (inactive) | > 100 µM (inactive) | > 100 | > 100 µM (inactive) | > 100 µM (inactive) | > 100 µM (inactive) | > 100 µM (inactive) | > 100 µM (inactive) | > 100 µM (inactive) | > 100 µM (inactive) | > 100 µM (inactive) | > 100 µM (inactive) | > 100 µM (inactive) | > 100 µM (inactive) | > 100 µM (inactive)
2 | COc1cc(-c2oc3c(OC)c(O)cc(O)c3c(=O)c2OC)ccc1O | 16.9 µM (inactive) | 4.2 µM (inactive) | 7.29 µM (inactive) | 5.18 µM (inactive) | 3.67 | 5.12 µM (inactive) | 10 µM (inactive) | 7.35 µM (inactive) | > 47.8 µM (inactive) | 8.17 µM (inactive) | 6.44 µM (inactive) | 12.9 µM (inactive) | 6.31 µM (inactive) | 13.8 µM (inactive) | 2.38 µM (inactive) | 12.4 µM (inactive) | 3.61 µM (inactive)
3 | c1ccc2c(Nc3ncco3)cccc2c1 | > 10 µM (inactive) | > 10 µM (inactive) | > 10 µM (inactive) | > 10 µM (inactive) | > 10 | > 10 µM (inactive) | > 10 µM (inactive) | > 10 µM (inactive) | > 10 µM (inactive) | > 10 µM (inactive) | > 10 µM (inactive) | > 10 µM (inactive) | > 10 µM (inactive) | > 10 µM (inactive) | > 10 µM (inactive) | > 10 µM (inactive) | > 10 µM (inactive)
4 | CCCCCCCCCCCCCCCCOCC(CCl)OP(=O)(O)OP(=O)(O)OCC1OC(n2ccc(N)nc2=O)C(O)C1O (stereo unspecified) | > 100 µM (inactive) | > 100 µM (inactive) | > 100 µM (inactive) | > 100 µM (inactive) | > 100 | > 100 µM (inactive) | > 100 µM (inactive) | > 100 µM (inactive) | > 100 µM (inactive) | > 100 µM (inactive) | 87.7 µM (inactive) | 99.3 µM (inactive) | > 100 µM (inactive) | > 100 µM (inactive) | > 100 µM (inactive) | > 100 µM (inactive) | > 100 µM (inactive)
5 | CCOC(=O)Nc1ccc(S(=O)(=O)Nc2ccc(Br)cc2)cc1 | 36.8 µM (inactive) | 13.6 µM (inactive) | 60.1 µM (inactive) | 35.1 µM (inactive) | 61.5 | 17.3 µM (inactive) | 37.3 µM (inactive) | 43.5 µM (inactive) | 74 µM (inactive) | 23.3 µM (inactive) | 41 µM (inactive) | 39.8 µM (inactive) | 18.5 µM (inactive) | 24.3 µM (inactive) | 31.5 µM (inactive) | 43.1 µM (inactive) | 22.4 µM (inactive)
6 | Cc1c(-c2ccccc2)c(C#N)c2nnn(-c3ccc(Cl)cc3)c(=O)n12 | 18.3 µM (inactive) | 68.7 µM (inactive) | 21.5 µM (inactive) | 56.8 µM (inactive) | 10.1 | 0.668 µM (active) | 24.2 µM (inactive) | 31 µM (inactive) | 81.3 µM (inactive) | 25.3 µM (inactive) | 22.2 µM (inactive) | > 100 µM (inactive) | 1.14 µM (inactive) | 25.2 µM (inactive) | 6.14 µM (inactive) | 77.1 µM (inactive) | 0.869 µM (active)
7 | CN(CCCCN(C)CCc1ccc(Cl)c(Cl)c1)CCCCN1CCCC1 | 1.25 µM (inactive) | 1.72 µM (inactive) | 1.65 µM (inactive) | 1.87 µM (inactive) | 1.69 | 0.877 µM (active) | 0.705 µM (active) | 0.465 µM (active) | 1.91 µM (inactive) | 2.09 µM (inactive) | 1.57 µM (inactive) | 0.533 µM (active) | 0.902 µM (active) | 1.21 µM (inactive) | 2 µM (inactive) | 1.61 µM (inactive) | 1.93 µM (inactive)
8 | Cc1c(S(=O)(=O)N/C(=N\O)Nc2ccc(Cl)c(Cl)c2)sc2ccc(Cl)cc12 | 19.7 µM (inactive) | 18.1 µM (inactive) | 24.7 µM (inactive) | 17.7 µM (inactive) | 17.1 | 29.5 µM (inactive) | 16.9 µM (inactive) | 17.9 µM (inactive) | 20.7 µM (inactive) | 21.9 µM (inactive) | 18.6 µM (inactive) | 21.4 µM (inactive) | 15.1 µM (inactive) | 39.4 µM (inactive) | 14.4 µM (inactive) | 17.7 µM (inactive) | 17.7 µM (inactive)
9 | Cc1[nH]c2ncn3[nH]c(=S)nc3c2c1Cc1ccccc1 | > 100 µM (inactive) | > 100 µM (inactive) | > 100 µM (inactive) | > 100 µM (inactive) | > 100 |  | > 100 µM (inactive) | > 100 µM (inactive) | > 100 µM (inactive) | > 100 µM (inactive) | > 100 µM (inactive) | > 100 µM (inactive) | > 100 µM (inactive) | > 100 µM (inactive) | 28.8 µM (inactive) | > 100 µM (inactive) | > 100 µM (inactive)
10 | NC(=O)C(=CNC(=S)Nc1ccc(S(=O)(=O)Nc2ccccn2)cc1)C(N)=O | > 100 µM (inactive) | > 100 µM (inactive) | > 100 µM (inactive) | > 100 µM (inactive) | > 78 | 40.6 µM (inactive) | > 100 µM (inactive) | > 100 µM (inactive) |  | > 100 µM (inactive) | > 100 µM (inactive) | > 100 µM (inactive) | > 100 µM (inactive) | 39.3 µM (inactive) | > 100 µM (inactive) | > 100 µM (inactive) | > 100 µM (inactive)
11 | Brc1ccc(-c2cn3ccncc3n2)cc1 | > 100 µM (inactive) | > 100 µM (inactive) | > 100 µM (inactive) | > 100 µM (inactive) | > 100 | > 100 µM (inactive) | > 100 µM (inactive) | > 100 µM (inactive) | > 100 µM (inactive) | > 100 µM (inactive) | > 100 µM (inactive) | > 100 µM (inactive) | > 100 µM (inactive) |  | > 100 µM (inactive) | > 100 µM (inactive) | > 100 µM (inactive)
12 | CC1=C[C@@H](C)C[C@]2(C)CC[C@H](O2)[C@]23CC[C@](C)(C[C@H](O2)[C@@H]2O[C@@](C)(CC2=O)[C@@H](O)[C@H]2CC[C@@]4(CCC[C@@H](O4)[C@H](C)C(=O)O[C@H]4C[C@H]([C@]5(O)OCC[C@H](C)[C@@H]5O)O[C@H]4C=C1)O2)O3 | 0.0027 µM (active) | 0.00147 µM (active) | 0.0035 µM (active) | 0.0024 µM (active) | 0.00796 | 0.00692 µM (active) | 0.0586 µM (active) | 0.0371 µM (active) | 0.00165 µM (active) |  | 0.00229 µM (active) | 0.00173 µM (active) | 0.00148 µM (active) | 0.0684 µM (active) | 0.0632 µM (active) | 0.00545 µM (active) | 0.00461 µM (active)
13 | CSc1ncc2c(n1)-c1ccccc1OC2N1CCOCC1 (stereo unspecified) | 75.7 µM (inactive) | 21.3 µM (inactive) | 97.7 µM (inactive) | 49.5 µM (inactive) | 53.7 | 56.1 µM (inactive) | 53.3 µM (inactive) | > 100 µM (inactive) |  | > 100 µM (inactive) | 31.6 µM (inactive) |  | 40.4 µM (inactive) | > 100 µM (inactive) | 24.1 µM (inactive) | 43.3 µM (inactive) | 28.1 µM (inactive)
14 | CCCCSC1=N/C(=C\c2ccccc2O)C(Cl)=N1 | > 100 µM (inactive) | > 100 µM (inactive) | > 100 µM (inactive) | > 100 µM (inactive) | > 100 |  | > 100 µM (inactive) | > 100 µM (inactive) | > 100 µM (inactive) | > 100 µM (inactive) | > 100 µM (inactive) | > 100 µM (inactive) |  | > 100 µM (inactive) | > 100 µM (inactive) | > 100 µM (inactive) | > 100 µM (inactive)
15 | O=C1CC(C(OCc2ccccc2)C(OCc2ccccc2)C(COCc2ccccc2)OCc2ccccc2)CC(=O)N1 (stereo unspecified) | > 75 µM (inactive) | > 100 µM (inactive) | 72.4 µM (inactive) | > 100 µM (inactive) | > 75 |  |  | > 75 µM (inactive) | > 100 µM (inactive) | > 75 µM (inactive) | > 75 µM (inactive) | > 75 µM (inactive) | > 75 µM (inactive) | > 100 µM (inactive) | 26.1 µM (inactive) | > 75 µM (inactive) | 
16 | COc1cc2c3c(n(C)c(=O)c2cc1OC)-c1cc2c(cc1/C3=C\CCCI)OCO2 | 5.32 µM (inactive) | 2.38 µM (inactive) | 38.9 µM (inactive) | 1.7 µM (inactive) | 2.56 | 2.07 µM (inactive) | > 87.9 µM (inactive) | 19.3 µM (inactive) | 2.23 µM (inactive) | 1.73 µM (inactive) | > 53.5 µM (inactive) |  | 10.4 µM (inactive) | 0.533 µM (active) | 0.7 µM (active) | 0.649 µM (active) | 4.49 µM (inactive)
17 | O=C(Nc1ccn(C2CC(O)C(CO)O2)c(=O)n1)c1ccccc1 (stereo unspecified) | > 100 µM (inactive) | > 100 µM (inactive) | > 100 µM (inactive) | > 100 µM (inactive) | > 100 | > 100 µM (inactive) | > 100 µM (inactive) | > 100 µM (inactive) |  | > 100 µM (inactive) | > 100 µM (inactive) | > 100 µM (inactive) | > 100 µM (inactive) | > 100 µM (inactive) | > 100 µM (inactive) | > 100 µM (inactive) | > 100 µM (inactive)
